Results reported in patent US5866681A, “Thrombin receptor antagonists” (priority 1995, dated 1999).
Read-outs that look alike come from different tables or passages of the source. *1 amine or outer side, *2 acyl side, *3 side chain or, on linkers, in order; H or OH if unused. Where a SMILES comes first, the peptide text is derived from it. [ ]: non-standard residue; d: D form. The star is where a group is joined. X18 = CN(CC(c1ccccc1)c1ccccc1)[C@@H](Cc1ccccc1)C(=O)*; X10 = O=C([C@H](Cc1ccccc1)N(CCCc1ccccc1)[*:1])[*:2]; X14 = O=C([C@H](Cc1ccccc1)N(CC1CCCCC1)CC1CCCCC1)*; X23 = O=C([C@H](Cc1ccccc1)N(CCC1CCCC1)[*:1])[*:2]; X24 = CC(C)CCN([C@@H](Cc1ccccc1)C(=O)[*:2])[*:1]; X22 = CCCCCN([C@@H](CCc1ccccc1)C(=O)[*:2])[*:1]; X16 = CCCCCN([C@@H](Cc1ccccc1)C(=O)[*:2])[*:1]; X17 = CSCCCN([C@@H](Cc1ccccc1)C(=O)[*:2])[*:1]; X12 = CCCCCN([C@H](Cc1ccccc1)C(=O)[*:2])[*:1]; Quinoline3carbonyl = O=C(c1cnc2ccccc2c1)*; X6 = CCCCCN(CCCCC)[C@@H](Cc1ccccc1)C(=O)*; X9 = CN(Cc1ccccc1)[C@@H](Cc1ccccc1)C(=O)*; Benzoyl(2-Ph) = O=C(c1ccccc1-c1ccccc1)*; X19 = CC(C)(C)CN1Cc2ccccc2C[C@H]1C(=O)*; Butanoyl(2-OPh) = CCC(Oc1ccccc1)C(=O)*; X5 = CCCCCN(C)[C@@H](Cc1ccccc1)C(=O)*; NMeR = CN[C@@H](CCCNC(=N)N)C(=O)O; hArg = N=C(N)NCCCC[C@H](N)C(=O)O; Cha = N[C@@H](CC1CCCCC1)C(=O)O; dCha = N[C@H](CC1CCCCC1)C(=O)O; X2 = O=C(Cc1c[nH]c2ccccc12)*; X21 = CCCCC(Oc1ccccc1)C(=O)*; Orn = NCCC[C@H](N)C(=O)O

Biological target: T1, thrombin receptor (Homo sapiens, UniProt P25116)
T1 construct: washed human platelets are prepared from blood drawn from healthy volunteers; endogenous in cells; host or cells: washed human platelets from healthy volunteers
T1 sequence (P25116 22-425): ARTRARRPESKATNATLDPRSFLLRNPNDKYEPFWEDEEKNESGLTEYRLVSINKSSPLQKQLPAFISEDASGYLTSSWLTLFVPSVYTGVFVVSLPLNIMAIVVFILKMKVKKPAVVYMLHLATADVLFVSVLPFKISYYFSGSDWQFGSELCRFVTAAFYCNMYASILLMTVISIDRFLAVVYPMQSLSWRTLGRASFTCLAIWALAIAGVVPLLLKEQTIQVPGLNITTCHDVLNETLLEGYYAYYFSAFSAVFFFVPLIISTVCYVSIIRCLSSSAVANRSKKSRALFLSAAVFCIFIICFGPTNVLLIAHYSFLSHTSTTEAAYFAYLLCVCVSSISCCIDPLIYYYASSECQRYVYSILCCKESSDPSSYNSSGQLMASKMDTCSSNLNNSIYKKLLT
Assay: Platelet aggregation assay for thrombin receptor antagonist activity (washed human platelets stimulated with α-thrombin)
Type: cell-based
Method: The compounds of the present invention may be tested for thrombin receptor antagonist activity by using a platelet aggregation assay. In this assay, washed human platelets are prepared from blood drawn from healthy volunteers who have not ingested any medications for two weeks prior to donation. Blood is drawn into 12.5% (vol/vol) ACD (85 mM sodium citrate, 111 mM dextrose, 71 mM citric acid) containing 0.1% (vol/vol) PGI2 (0.05 mg/mL PGI2, 100 mM Tris, pH 12). Platelet-rich plasma was obtained by centrifugation at 160×g for 20 minutes. The platelets were pelleted by centrifugation at 760×g for 10 minutes and resuspended in CGS (13 mM trisodium citrate, 120 mM sodium chloride, 30 mM dextrose, pH 7.0) containing 0.1% (vol/vol) PGI2, repelleted and resuspended in Tyrodes buffer (10 mM Hepes, 12 mM sodium bicarbonate, 138 mM sodium chloride, 5.5 mM glucose, 2.9 mM potassium chloride, 1.0 mM calcium chloride, pH 7.4) and stored at 37° C. Approximately 0.4-10 nM α-thrombin is used to stimulate platelet aggregation in control reactions which are monitored by aggregometry using an aggregometer. Candidate antagonists are added to the platelet mixture followed by the addition of thrombin in order to assess their ability to prevent thrombin-mediated aggregation.
Platelet aggregation can also be measured with washed platelets in 96-well microtiter plates as described in Fratantoni, J. C. et al., Am. J. Clin. Pathol. 94:613-617 (1990). The ability of the antagonists to block the thrombin receptor was assessed in this assay using various concentrations of antagonists. The concentration at which 50% inhibition of platelet aggregation is achieved is defined as IC50.

[1] = washed human platelets, thrombin-mediated aggregation, read-out: IC50 (concentration at which 50% inhibition of platelet aggregation is achieved)

| Compound | IC50 [1] [µM] | IC50 [µM] |
| --- | --- | --- |
| CCCCCN[C@@H](Cc1ccccc1)C(=O)N[C@@H](CC1CCCCC1)C(=O)N[C@H](CC(C)C)C(=O)N[C@@H](CCCNC(=N)N)C(=O)N[C@@H](CCCCN)C(N)=O [Compound 44] (H-[X16][Cha][dL]RK-NH2) | 5 | – |
| N=C(N)NCCC[C@H](NC(=O)[C@H](CC1CCCCC1)NC(=O)[C@H](CC1CCCCC1)NC(=O)Cc1c[nH]c2ccccc12)C(=O)N[C@@H](CCCCN)C(N)=O [Compound 30] (X2-[Cha][Cha]RK-NH2) | 20 | – |
| CCCCCN[C@@H](Cc1ccccc1)C(=O)N[C@H](CC(C)C)C(=O)N[C@@H](CC1CCCCC1)C(=O)N[C@@H](CCCNC(=N)N)C(=O)N[C@@H](CCCCN)C(N)=O [Compound 45] (H-[X16][dL][Cha]RK-NH2) | 5 | – |
| N=C(N)NCCC[C@H](NC(=O)[C@H](CC1CCCCC1)NC(=O)[C@H](CC1CCCCC1)NC(=O)[C@H](Cc1ccccc1)NCCCc1ccccc1)C(=O)N[C@@H](CCCCN)C(=O)N1CCC[C@H]1C(=O)N[C@@H](CC(N)=O)C(=O)N[C@@H](CC(=O)O)C(=O)N[C@@H](CCCCN)C(N)=O [Compound 7] (H-[X10][Cha][Cha]RKPNDK-NH2) | – | 5 |
| N=C(N)NCCC[C@H](NC(=O)[C@H](CC1CCCCC1)NC(=O)[C@H](CC1CCCCC1)NC(=O)c1cnc2ccccc2c1)C(=O)N[C@@H](CCCCN)C(N)=O [Compound 29] (Quinoline3carbonyl-[Cha][Cha]RK-NH2) | > 200 | – |
| CCC(Oc1ccccc1)C(=O)N[C@@H](CC1CCCCC1)C(=O)N[C@@H](CC1CCCCC1)C(=O)N(C)[C@@H](CCCNC(=N)N)C(=O)N[C@@H](CCCCN)C(N)=O (stereo partly shown) [Compound 53] ({Butanoyl(2-OPh)}-[Cha][Cha][NMeR]K-NH2) | 2 | – |
| CCCCCN[C@@H](Cc1ccccc1)C(=O)N[C@@H](CC1CCCCC1)C(=O)N[C@@H](CC1CCCCC1)C(=O)N[C@@H](CCCNC(=N)N)C(=O)N[C@@H](CCCCN)C(=O)N1CCC[C@H]1C(=O)N[C@@H](CC(N)=O)C(=O)N[C@@H](CC(=O)O)C(=O)N[C@@H](CCCCN)C(N)=O [Compound 5] (H-[X16][Cha][Cha]RKPNDK-NH2) | 2.5 | – |
| N=C(N)NCCC[C@H](NC(=O)[C@H](CC1CCCCC1)NC(=O)[C@H](CC1CCCCC1)NC(=O)c1ccccc1-c1ccccc1)C(=O)N[C@@H](CCCCN)C(N)=O [Compound 25] ({Benzoyl(2-Ph)}-[Cha][Cha]RK-NH2) | 25 | – |
| CN(Cc1ccccc1)[C@@H](Cc1ccccc1)C(=O)N[C@@H](CC1CCCCC1)C(=O)N[C@@H](CC1CCCCC1)C(=O)N[C@@H](CCCNC(=N)N)C(=O)N[C@@H](CCCCN)C(N)=O [Compound 19] (X9-[Cha][Cha]RK-NH2) | 30 | – |
| CC/C(=C\c1ccccc1)CN[C@@H](CC1CCCCC1)C(=O)N[C@@H](CC1CCCCC1)C(=O)N[C@@H](CCCNC(=N)N)C(=O)N[C@@H](CCCCN)C(N)=O [Compound 35] | 20 | – |
| CCCCCN[C@@H](CCc1ccccc1)C(=O)N[C@@H](CC1CCCCC1)C(=O)N[C@@H](CC1CCCCC1)C(=O)N[C@@H](CCCNC(=N)N)C(=O)N[C@@H](CCCCN)C(N)=O [Compound 9] (H-[X22][Cha][Cha]RK-NH2) | 15 | – |
| N=C(N)NCCC[C@H](NC(=O)[C@H](CC1CCCCC1)NC(=O)[C@H](CC1CCCCC1)NC(=O)[C@H](Cc1ccccc1)NCCC1CCCC1)C(=O)N[C@@H](CCCCN)C(=O)N1CCC[C@H]1C(=O)N[C@@H](CC(N)=O)C(=O)N[C@@H](CC(=O)O)C(=O)N[C@@H](CCCCN)C(N)=O [Compound 6] (H-[X23][Cha][Cha]RKPNDK-NH2) | – | 10 |
| CCC(Oc1ccccc1)C(=O)N[C@@H](CC1CCCCC1)C(=O)N[C@@H](CC1CCCCC1)C(=O)N[C@@H](CCCN)C(=O)N[C@@H](CCCCN)C(N)=O (stereo partly shown) [Compound 50] ({Butanoyl(2-OPh)}-[Cha][Cha][Orn]K-NH2) | 100 | – |
| CSCCCN[C@@H](Cc1ccccc1)C(=O)N[C@@H](CC1CCCCC1)C(=O)N[C@@H](CC1CCCCC1)C(=O)N[C@@H](CCCNC(=N)N)C(=O)N[C@@H](CCCCN)C(=O)N1CCC[C@H]1C(=O)N[C@@H](CC(N)=O)C(=O)N[C@@H](CC(=O)O)C(=O)N[C@@H](CCCCN)C(N)=O [Compound 2] (H-[X17][Cha][Cha]RKPNDK-NH2) | 10 | – |
| CCC(Oc1ccccc1)C(=O)N[C@@H](CC1CCCCC1)C(=O)N[C@@H](CC1CCCCC1)C(=O)NCCCN1CCN(CCCN)CC1 (stereo partly shown) [Compound 59] | 90 | – |
| CCC(Oc1ccccc1)C(=O)N[C@@H](CC1CCCCC1)C(=O)N[C@@H](CC1CCCCC1)C(=O)N[C@@H](CCCNC(=N)N)C(=O)N[C@@H](CCCCN)C(N)=O (stereo partly drawn) [Compound 10, 2-Phenoxybutyryl-Cha-Cha-Arg-Lys-NH2] ({Butanoyl(2-OPh)}-[Cha][Cha]RK-NH2) | 10 | – |
| CCC(Oc1ccccc1)C(=O)N[C@@H](CC1CCCCC1)C(=O)N[C@@H](CC1CCCCC1)C(=O)N[C@@H](CCCCNC(=N)N)C(=O)N[C@@H](CCCNC(=N)N)C(N)=O (stereo partly shown) [Compound 55] ({Butanoyl(2-OPh)}-[Cha][Cha][hArg]R-NH2) | 1 | – |
| N=C(N)NCCC[C@H](NC(=O)[C@H](CC1CCCCC1)NC(=O)[C@H](CC1CCCCC1)NC(=O)[C@H](Cc1ccccc1)N(CC1CCCCC1)CC1CCCCC1)C(=O)N[C@@H](CCCCN)C(=O)N1CCC[C@H]1C(=O)N[C@@H](CC(N)=O)C(=O)N[C@@H](CC(=O)O)C(=O)N[C@@H](CCCCN)C(N)=O [Compound 8] (X14-[Cha][Cha]RKPNDK-NH2) | 5 | – |
| CC(C)CCN[C@@H](Cc1ccccc1)C(=O)N[C@@H](CC1CCCCC1)C(=O)N[C@@H](CC1CCCCC1)C(=O)N[C@@H](CCCNC(=N)N)C(=O)N[C@@H](CCCCN)C(=O)N1CCC[C@H]1C(=O)N[C@@H](CC(N)=O)C(=O)N[C@@H](CC(=O)O)C(=O)N[C@@H](CCCCN)C(N)=O [Compound 1] (H-[X24][Cha][Cha]RKPNDK-NH2) | 5 | – |
| CCCCCC/C(=C\c1ccccc1)CN[C@@H](CC1CCCCC1)C(=O)N[C@@H](CC1CCCCC1)C(=O)N[C@@H](CCCNC(=N)N)C(=O)N[C@@H](CCCCN)C(N)=O [Compound 26] | 7.5 | – |
| CCCCCN(CCCCC)[C@@H](Cc1ccccc1)C(=O)N[C@@H](CC1CCCCC1)C(=O)N[C@H](CC1CCCCC1)C(=O)N[C@@H](CCCNC(=N)N)C(=O)N[C@@H](CCCCN)C(N)=O [Compound 42] (X6-[Cha][dCha]RK-NH2) | 2 | – |
| CCCCCN[C@H](Cc1ccccc1)C(=O)N[C@@H](CC1CCCCC1)C(=O)N[C@@H](CC1CCCCC1)C(=O)N[C@@H](CCCNC(=N)N)C(=O)N[C@@H](CCCCN)C(N)=O [Compound 22] (H-[X12][Cha][Cha]RK-NH2) | – | 25 |
| CC(COc1ccccc1)N[C@@H](CC1CCCCC1)C(=O)N[C@@H](CC1CCCCC1)C(=O)N[C@@H](CCCNC(=N)N)C(=O)N[C@@H](CCCCN)C(N)=O (stereo partly shown) [Compound 36] | 7.5 | – |
| CN(CC(c1ccccc1)c1ccccc1)[C@@H](Cc1ccccc1)C(=O)N[C@@H](CC1CCCCC1)C(=O)N[C@@H](CC1CCCCC1)C(=O)N[C@@H](CCCNC(=N)N)C(=O)N[C@@H](CCCCN)C(N)=O [Compound 16] (X18-[Cha][Cha]RK-NH2) | – | 10 |
| CCCCC(Oc1ccccc1)C(=O)N[C@@H](CC1CCCCC1)C(=O)N[C@@H](CC1CCCCC1)C(=O)N[C@@H](CCCNC(=N)N)C(=O)N[C@@H](CCCCN)C(N)=O (stereo partly shown) [Compound 24] (X21-[Cha][Cha]RK-NH2) | 15 | – |
| CCCCCN(C)[C@@H](Cc1ccccc1)C(=O)N[C@@H](CC1CCCCC1)C(=O)N[C@@H](CC1CCCCC1)C(=O)N[C@@H](CCCNC(=N)N)C(=O)N[C@@H](CCCCN)C(N)=O [Compound 15] (X5-[Cha][Cha]RK-NH2) | – | 10 |
| CCC(Oc1ccccc1)C(=O)N[C@@H](CC1CCCCC1)C(=O)N[C@@H](CC1CCCCC1)C(=O)NCCCN(C)C (stereo partly shown) [Compound 60] | 25 | – |
| CC(C)(C)CN1Cc2ccccc2C[C@H]1C(=O)N[C@@H](CC1CCCCC1)C(=O)N[C@@H](CC1CCCCC1)C(=O)N[C@@H](CCCNC(=N)N)C(=O)N[C@@H](CCCCN)C(N)=O [Compound 13] (X19-[Cha][Cha]RK-NH2) | 5 | – |
